Reference: a melting point compilation (Tetko et al.; mined from patent text by program, amines drawn as free bases though some values may be those of a salt)
Starred links: 1 amine or outer side, 2 acyl side, 3 side chain; linkers in the order of their positions; H or OH if unused. Residues, ends and D or L forms follow the SMILES beside them. *: point of attachment. βAsp = O=C(O)[CH](CC(=O)[*:2])N[*:1]; Bz = O=C(c1ccccc1)*

Compound	melting point
Cc1cc(C)c(C(C#N)C=O)c(C)c1 (stereo not given)	120 to 122 °C
Cc1cc(C)cc(Sc2c(C(C)C)nc(C=NO)n2C)c1	240 to 241 °C
CC(C)(Oc1ccc(-c2ccc(CCNC(=O)c3ccccc3)cc2)cc1)C(=O)O	179 °C
COc1ccc2cc(-c3ccc(C#C[Si](C)(C)C)cc3)[nH]c(=O)c2c1	133 to 135 °C
COc1ccc(/C=N/Nc2nc(=O)[nH]cc2F)cc1	202 to 208 °C
C=C(C)C(=O)OCCCCCCOc1ccc(C(=O)Oc2ccc(/C=C/C(=O)OC)cc2OC)cc1	92 to 94 °C
CCCCC(COc1ccc(-c2cccc(CC#N)c2)cc1)N(O)C=O (stereo not given)	99 to 101 °C
CCCCc1nnc2n1-c1sc3c(c1C(c1ccccc1Cl)=NC2)CCNC3	224 °C
Cc1ccc(S(=O)(=O)OCCCCCCCn2c3c(c4ccccc4c2=O)C(=O)c2ccccc2-3)cc1	123 to 126 °C
Cc1cc(-n2nc(C(F)(F)F)cc2-c2ccc(-c3ccco3)cc2)ccc1S(N)(=O)=O	137 °C
CCOc1ccc(-c2nc(CCC(=O)c3ncccc3OC)cs2)cc1OCC	79.2 to 79.7 °C
CC(C)CCN1C(=O)C(NC(=O)Oc2cccc(N(C)C)c2)C(=O)N(c2ccccc2)c2cc(Cl)c(Cl)cc21 (stereo not given)	163 to 164 °C
CN(C(=O)Nc1nc(OCC(F)(F)F)nc(OCC(F)(F)F)n1)c1ccc(C(F)(F)F)cc1	130 to 132 °C
CCOC(=O)c1cc(-c2ccc(OCc3cccnc3)cc2O[C@H](CCC(=O)O)c2ccccc2C)n[nH]1	108 to 110 °C
COc1ccc2c(c1)Sc1cc(OC)c(Cl)cc1C(O)C2 (stereo not given)	105 to 106 °C
COCOc1ccc(C(=O)c2ccc(OCc3nc(-c4ccccc4)oc3C)cc2)c(O)c1	105 to 107 °C
CCN(CC)CCCC(=O)O	45 to 47 °C
CCCCCC(=O)Nc1ccnc(-c2ccncc2)n1	119 to 120 °C
CNc1c([N+](=O)[O-])c(Br)nn1Cc1ccccc1	116 °C
COc1ccccc1C(O)c1cccc2c1ccn2C (stereo not given)	95 °C

Compound	melting point
CC(C)N(C)c1nc(Nc2cccc(NS(C)(=O)=O)c2)nc2[nH]cnc12	144 to 147 °C
S=C1N=c2cc(Cl)c(Cl)cc2=N1	328 to 330 °C
Cc1ccc2c(c1)nnn2CNc1ccccc1	149 to 152 °C
COc1ccc(S(=O)(=O)N2C(=O)C(N)(c3ccccc3OC)c3cc(Cl)ccc32)c(OC)c1 (stereo not given)	172 to 173 °C
CC(CCn1cnc2ccccc21)NCC(O)COc1ccc(CC(N)=O)cc1 (stereo not given)	139 to 142 °C
C#CCOc1cc(-n2nc(C)ccc2=O)c(F)cc1C#N	180 °C
COC(OC)C(=O)CC(C)(C)C(Cc1c(C)c(Br)cn1S(=O)(=O)c1ccc(C)cc1)[N+](=O)[O-] (stereo not given)	114 to 115 °C
OC1(C#Cc2ccccc2Cc2ccccc2)CN2CCC1CC2 (stereo not given)	156 to 157 °C
COc1ccc(S(=O)(=O)n2ccc3ccnc(-c4ccc(Cl)cc4)c32)cc1	126 to 128 °C
COc1ccc(CNc2nc(SC)ncc2CO)cc1Cl	159 to 160 °C
FC(F)(F)c1ccc2c(Cl)ncc(Br)c2n1	59 to 60 °C
CCOc1ccc(C(=O)Nc2ccccc2)cc1N	189 to 190 °C
CCOc1ccc(Nc2nc(NCc3ccco3)nc(Nc3ccc(O)cc3)n2)cc1	43 to 45 °C
O=C(Nc1cccc(C(F)(F)F)c1F)c1ccccc1NCc1ccc(=O)[nH]c1	185 to 186 °C
C=COCCN1CCC(Nc2nc3ccccc3n2Cc2ccc(F)cc2)CC1	138 °C
CCc1nc(Cl)c(C(=O)N(C)CC)n1Cc1ccc2oc(-c3ccccc3NC(=O)OC(C)(C)C)c(Br)c2c1	95 to 96 °C
CN1C(=O)NC(=O)C1=O	146 to 149 °C
N#Cc1[nH]c(-c2ccc(Cl)cc2Cl)nc1N	223 to 225 °C
NC(C(=O)O)C(O)CC(=O)O (stereo not given)	137 to 138 °C
CN1C(=O)CSC(c2cccc(Cl)c2)c2cc(C(N)(c3ccc(Cl)cc3)c3cncn3C)ccc21 (stereo not given)	218 °C

Compound	melting point
COc1cc(CBr)cc(OC)c1	70 to 72 °C
Cc1ccc(S(=O)(=S)OCc2ccccc2)cc1 (stereo not given)	52 to 56.5 °C
CC(=O)c1ccc2c(c1)S(=O)(=O)c1ccccc1O2	163 to 165 °C
NC=C1C(=O)c2ccccc2OC1c1ccccc1 (stereo not given)	149 to 152 °C
CC(=O)Nc1nc(-c2ccco2)c(C(=O)c2ccccn2)s1	216 to 217 °C
CC(C)(C)c1cc(CCC(=O)O)n(Cc2ccc(C(F)(F)F)cc2Cl)n1	128 to 129 °C
CC=C(C#N)c1cccnc1	46 to 47 °C
CC(C)=C1C(=O)N(c2cc(F)c(C#N)cc2F)C(=O)C1=C(C)C	144 °C
CCN(C)C1=NS(=O)(=O)c2cccc(OC)c21	154 to 156 °C
COc1cccc(Nc2n[nH]c(N=CN(C)C)c2C#N)c1	227 to 231 °C
CCc1nc2cc(COC)c(Cl)cc2n1-c1ccc(CCNC(=O)NS(=O)(=O)c2ccc(C)cc2)cc1	135 °C
CCCNC(=O)C1(C/C=C/c2ccccc2)c2ccccc2-c2ccccc21	95 to 97 °C
CC(C)(C)c1nnc(S)n(N)c1=O	209 to 212 °C
CCCS(=O)(=O)NCC(O)(Cn1cncn1)c1ccc(Cl)cc1Cl (stereo not given)	128 to 129 °C
O=C1CC(c2csc(-n3ccnc3)n2)=Nc2ccc(-c3ccccc3F)cc2N1	194 to 197 °C
O=C(Nc1ccc(O)cc1)Nn1cnc2ccccc2c1=O	220 to 223 °C
CCOC(=O)C(C)Oc1ccc(OCc2ccccc2)cc1F (stereo not given)	63 °C
CNCCNC(=NCCSCc1[nH]cnc1C)NC#N	146 to 148 °C
O=C(Nc1cccc(-c2cc(-c3c(Cl)cccc3Cl)no2)c1)C(Cl)Cl	167 °C
COCOc1cccc2cccc(C=O)c12	56 to 57 °C

The next lines start with the values.

melting point	Compound
180 °C	CCCCC(=O)N[C@H]1CC[C@H](CCN2CCN(c3nccc4c3CCO4)CC2)CC1
76 °C	C#CCn1ccc(C(=O)OC)c1C=O
222 to 223 °C	COc1c(/C=C/c2ccc(C(=O)O)cc2)c(C)cc2c1C(C)(C)CCC2(C)C
188 °C	O=C(CCc1ccccc1)N[C@H]1C[C@H](C(=O)O)Nc2cc(Cl)cc(Cl)c21 (relative stereo)
106 to 113 °C	CCCCCCCCCCCCCCCC(=O)Nc1c(C)cccc1C(=O)O
160 to 162 °C	CCOC(=O)C(N=Nc1ccc(Br)cc1C(=O)c1ccccn1)NC(=O)CCl (stereo not given)
190 to 191 °C	COc1cc(C(=O)NC2CCN(C(=O)CN(C)C)CC2)ccc1Nc1ncc2c(n1)N(C1CCCCC1)CC(F)(F)C(=O)N2C
136 °C	O[C@@H]1CNCC[C@H]1NCc1ccccc1 (relative stereo)
124 to 125 °C	Cc1nc(C(F)(F)F)ccc1C(=O)C1=C(Sc2ccccc2)CCCC1=O
128 to 131 °C	CCCCOC(=O)N[C@H]1C(=O)N[C@H]1CO (relative stereo)
100 to 101 °C	CCOC(=O)CC(C)c1ccc(C2COc3c(C)c(C)c(NC(=O)CC(C)(C)C)c(C)c32)cc1 (stereo not given)
175 to 176 °C	CN1CCN(c2cccc3c2C[C@H](NC(=O)c2csc(-c4ccccc4)n2)CC3)CC1
270 to 271 °C	COc1cc2c(cc1OC)C1=C(CC2)NC(=O)CC1
110 °C	COc1cccc(NC(=O)O[C@@H]2CN=C(c3ccccc3)O[C@H]2c2ccccc2)c1 (racemic)
161 to 164 °C	CC12CCC3C(C=CC4=CC(=O)CCC43CO)C1CCC2C(=O)CO (stereo not given)
142 to 145 °C	CC(NC1(C(=O)O)CCCC1)C(=O)N1CCCC1C(=O)O (stereo not given)
142 to 143 °C	COc1ccc(C2SC(=O)NC2C(=O)NCCO[N+](=O)[O-])cc1 (stereo not given)
86 to 90 °C	CS(=O)(=O)c1ccc(-c2cc(=O)n(C3CCCCC3)nc2-c2ccc(F)cc2)cc1
60 to 62 °C	CC1(C)Cc2ccccc2C1c1cncnc1SCc1cccc(F)c1 (stereo not given)
133 °C	O=C1CCCC1Oc1cccc2onc(OCC3CCN(CC4(O)CCOCC4)CC3)c12 (stereo not given)

melting point	Compound
193 to 195 °C	CCCCc1ccc(-c2coc(C(=O)O)cc2=O)cc1
210 °C	O=C(N[C@@H]1CCNC[C@H]1O)c1ccccc1 (relative stereo)
107 °C	COc1ccc(CSCC(=O)NO)cc1
227 to 228 °C	CC(=O)NC(C#N)NC(=O)c1cc(Cl)cc(Cl)c1 (stereo not given)
202 to 203 °C	CN1CCN(c2cccc3c2C[C@H](NC(=O)c2ccc(C(F)(F)F)cc2C(F)(F)F)CO3)CC1
231 to 232 °C	CC(C)n1nc(-c2sc(NC(=O)N3CCOCC3)nc2-c2ccccc2)ccc1=O
> 280 °C	CC1(C)Oc2ccc(S(=O)(=O)c3cccc(O)c3)cc2[C@@H](Nc2ccnc(Cl)n2)[C@]1(C)O
132 °C	C#CCC(c1ccc(Cl)cc1Cl)C(O)(C(C)=O)c1cccnc1 (stereo not given)
96 to 97 °C	O=CC(CC(=O)O)NC(=O)C1CCCN2C(=O)CCC(NC(=O)CCc3ccccc3)C(=O)N12 (stereo not given)
155 to 157 °C	CC(C)(C)OC(=O)N[C@@H](Cc1cncn1COCc1ccccc1)C(=O)O
145 to 146 °C	COc1ccc(-c2cc(C(=O)NCc3ccccc3)c(=O)n(C)n2)cc1
205 to 208 °C	CCC1C(=O)Nc2cccc3c2N1C(=O)C3c1ccccc1 (stereo not given)
167 to 169 °C	Nc1ccc(C(CC2CCCC2)C(=O)O)cc1 (stereo not given)
77 to 80 °C	CCCC(=Cc1ccccc1)CN1CCc2nc(N)sc2CC1
154 to 157 °C	COC(=O)C(=C(C)C)N1C(=O)[C@H]([C@H](C)OC(=O)OCc2ccc([N+](=O)[O-])cc2)[C@@H]1Cl
231 to 232 °C	COc1cc2c(cn1)OCC21C(=O)Nc2ccccc21 (stereo not given)
110 °C	CCC1(CCC(=O)OC)CCCN2CCc3c([nH]c4ccccc34)C21 (stereo not given)
218 °C	CCN(CC)C(=O)Nc1ccc(S(=O)(=O)n2c(=O)n(C3CCCCCC3)c3cc(Cl)ccc32)c(OC)c1
110 °C	CC(NC(=O)CC(NC(=O)c1ccccc1)C(=O)O)C(=O)N1CCCC1C(=O)O (stereo not drawn) ({Bz-βAsp}-Ala-Pro-OH; configuration not given here)
118 to 120 °C	COC(=O)CCn1c(C(=O)O)cc2ccccc21
